Source: the NIST ThermoML archive (doi:10.1016/j.fluid.2019.05.015)
Numbers after ± are expanded uncertainties.

Test: refractive index (Na D-line) (dimensionless); xn = mol fraction of the nth substance listed
Details: 100 kPa, Liquid, Standard Abbe refractometry

## O=C1OCCO1 [ethylene carbonate] + CCn1cc[n+](C)c1.[Br-]
298.2 K, x1 = 0.106
  refractive index: 1.5505 ± 0.0006
298.2 K, x1 = 0.222
  refractive index: 1.5405 ± 0.0006
298.2 K, x1 = 0.2945
  refractive index: 1.531 ± 0.0006
298.2 K, x1 = 0.3671
  refractive index: 1.5245 ± 0.0006
298.2 K, x1 = 0.4655
  refractive index: 1.5105 ± 0.0006
298.2 K, x1 = 0.6002
  refractive index: 1.498 ± 0.0006
298.2 K, x1 = 0.7142
  refractive index: 1.4835 ± 0.0006
298.2 K, x1 = 0.7981
  refractive index: 1.4695 ± 0.0006
298.2 K, x1 = 0.8946
  refractive index: 1.45 ± 0.0006
308.2 K, x1 = 0.106
  refractive index: 1.548 ± 0.0006
308.2 K, x1 = 0.222
  refractive index: 1.5385 ± 0.0006
308.2 K, x1 = 0.2945
  refractive index: 1.529 ± 0.0006
308.2 K, x1 = 0.3671
  refractive index: 1.5235 ± 0.0006
308.2 K, x1 = 0.4655
  refractive index: 1.5085 ± 0.0006
308.2 K, x1 = 0.6002
  refractive index: 1.4955 ± 0.0006
308.2 K, x1 = 0.7142
  refractive index: 1.481 ± 0.0006
308.2 K, x1 = 0.7981
  refractive index: 1.466 ± 0.0006
308.2 K, x1 = 0.8946
  refractive index: 1.445 ± 0.0005
318.2 K, x1 = 0.106
  refractive index: 1.5455 ± 0.0006
318.2 K, x1 = 0.222
  refractive index: 1.5345 ± 0.0006
318.2 K, x1 = 0.2945
  refractive index: 1.5275 ± 0.0006
318.2 K, x1 = 0.3671
  refractive index: 1.52 ± 0.0006
318.2 K, x1 = 0.4655
  refractive index: 1.5065 ± 0.0006
318.2 K, x1 = 0.6002
  refractive index: 1.493 ± 0.0006
318.2 K, x1 = 0.7142
  refractive index: 1.4775 ± 0.0006
318.2 K, x1 = 0.7981
  refractive index: 1.4635 ± 0.0006
318.2 K, x1 = 0.8946
  refractive index: 1.4425 ± 0.0005

## O=C1OCCO1 [ethylene carbonate] + O
298.2 K, x2 = 0.0993
  refractive index: 1.4205 ± 0.0005
298.2 K, x2 = 0.1962
  refractive index: 1.4175 ± 0.0005
298.2 K, x2 = 0.2943
  refractive index: 1.414 ± 0.0005
298.2 K, x2 = 0.3321
  refractive index: 1.4125 ± 0.0005
298.2 K, x2 = 0.4172
  refractive index: 1.4085 ± 0.0005
298.2 K, x2 = 0.4758
  refractive index: 1.4055 ± 0.0005
298.2 K, x2 = 0.5337
  refractive index: 1.401 ± 0.0005
298.2 K, x2 = 0.5766
  refractive index: 1.399 ± 0.0005
298.2 K, x2 = 0.6159
  refractive index: 1.397 ± 0.0005
298.2 K, x2 = 0.6887
  refractive index: 1.391 ± 0.0005
298.2 K, x2 = 0.7258
  refractive index: 1.386 ± 0.0005
298.2 K, x2 = 0.7789
  refractive index: 1.3805 ± 0.0005
298.2 K, x2 = 0.8239
  refractive index: 1.375 ± 0.0005
298.2 K, x2 = 0.881
  refractive index: 1.364 ± 0.0005
298.2 K, x2 = 0.9186
  refractive index: 1.356 ± 0.0005
298.2 K, x2 = 0.9593
  refractive index: 1.345 ± 0.0005
298.2 K, x2 = 0.9778
  refractive index: 1.34 ± 0.0005
308.2 K, x2 = 0.0993
  refractive index: 1.417 ± 0.0005
308.2 K, x2 = 0.1962
  refractive index: 1.4145 ± 0.0005
308.2 K, x2 = 0.2943
  refractive index: 1.411 ± 0.0005
308.2 K, x2 = 0.3321
  refractive index: 1.409 ± 0.0005
308.2 K, x2 = 0.4172
  refractive index: 1.4055 ± 0.0005
308.2 K, x2 = 0.4739
  refractive index: 1.4015 ± 0.0005
308.2 K, x2 = 0.5337
  refractive index: 1.3985 ± 0.0005
308.2 K, x2 = 0.5753
  refractive index: 1.3955 ± 0.0005
308.2 K, x2 = 0.6159
  refractive index: 1.3925 ± 0.0005
308.2 K, x2 = 0.688
  refractive index: 1.3875 ± 0.0005
308.2 K, x2 = 0.725
  refractive index: 1.381 ± 0.0005
308.2 K, x2 = 0.7785
  refractive index: 1.3765 ± 0.0005
308.2 K, x2 = 0.8234
  refractive index: 1.3705 ± 0.0005
308.2 K, x2 = 0.8807
  refractive index: 1.361 ± 0.0005
308.2 K, x2 = 0.9183
  refractive index: 1.354 ± 0.0005
308.2 K, x2 = 0.9591
  refractive index: 1.3435 ± 0.0005
308.2 K, x2 = 0.9777
  refractive index: 1.3385 ± 0.0005
318.2 K, x2 = 0.0993
  refractive index: 1.414 ± 0.0005
318.2 K, x2 = 0.1962
  refractive index: 1.4105 ± 0.0005
318.2 K, x2 = 0.2943
  refractive index: 1.4075 ± 0.0005
318.2 K, x2 = 0.3321
  refractive index: 1.406 ± 0.0005
318.2 K, x2 = 0.4172
  refractive index: 1.4015 ± 0.0005
318.2 K, x2 = 0.473
  refractive index: 1.3985 ± 0.0005
318.2 K, x2 = 0.5315
  refractive index: 1.395 ± 0.0005
318.2 K, x2 = 0.5744
  refractive index: 1.3925 ± 0.0005
318.2 K, x2 = 0.6147
  refractive index: 1.3895 ± 0.0005
318.2 K, x2 = 0.6871
  refractive index: 1.384 ± 0.0005
318.2 K, x2 = 0.7243
  refractive index: 1.3785 ± 0.0005
318.2 K, x2 = 0.7779
  refractive index: 1.374 ± 0.0005
318.2 K, x2 = 0.8228
  refractive index: 1.368 ± 0.0005
318.2 K, x2 = 0.8803
  refractive index: 1.3585 ± 0.0005
318.2 K, x2 = 0.9181
  refractive index: 1.3505 ± 0.0005
318.2 K, x2 = 0.959
  refractive index: 1.3425 ± 0.0005
318.2 K, x2 = 0.9777
  refractive index: 1.337 ± 0.0005
